From US11802120B2, “Fused cyclic urea derivatives as CRHR2 antagonist” (RaQualia Pharma Inc., priority 2018, dated 2023)

Biological target: T1, human CRHR2-alpha (Homo sapiens, UniProt Q13324)
T1 sequence (Q13324 1-411): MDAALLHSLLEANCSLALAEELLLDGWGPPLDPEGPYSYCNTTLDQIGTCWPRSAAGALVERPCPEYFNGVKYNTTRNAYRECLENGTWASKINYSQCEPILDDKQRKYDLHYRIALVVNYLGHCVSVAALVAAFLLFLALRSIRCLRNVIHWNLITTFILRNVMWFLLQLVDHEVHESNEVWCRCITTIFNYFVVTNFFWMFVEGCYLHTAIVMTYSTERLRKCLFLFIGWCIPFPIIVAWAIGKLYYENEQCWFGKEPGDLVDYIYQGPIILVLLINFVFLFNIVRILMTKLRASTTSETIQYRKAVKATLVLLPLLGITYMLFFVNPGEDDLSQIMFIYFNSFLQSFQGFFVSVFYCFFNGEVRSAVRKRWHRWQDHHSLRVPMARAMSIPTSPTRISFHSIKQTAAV
Assay: cAMP functional assay for human CRHR2 (LANCE Ultra cAMP, TR-FRET)
Assay type: cell-based
Conditions: CHO-K1 cells expressing human CRHR2-alpha, agonist human urocortin2 at EC80, cAMP; read-out: IC50 against CRHR2
How it was run: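 CHO-K1 stable lines; 4,000 cells/well; compound 30 min, 25° C; EC80 agonist (human urocortin2 → CRHR2, CRF → CRHR1) 30 min, 25° C; buffer HBSS/0.1% BSA/0.5 mM IBMX/5 mM Hepes pH 7.4; Eu-cAMP tracer + ULight antibody 60 min; TR-FRET read; IC50 from % inhibition curves.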

Structure (SMILES)	IC50 [µM]
Cc1c[nH]c2ncc(-n3c(=O)n(C[C@H]4CC[C@H](NC(=O)c5cc(Cl)cnc5C(F)(F)F)CC4)c4ccccc43)cc12 [Example 425, 5-chloro-N-((1r,4r)-4-((3-(3-methyl-1H-pyrrolo[2,3-b]pyridin-5-yl)-2-oxo-2,3-dihydro-1H-benzo[d]imidazol-1-yl)methyl)cyclo-hexyl)-2-(trifluoromethyl) nicotinamide]	< 0.3
Cc1ncc(Cl)cc1C(=O)N[C@H]1CC[C@H](Cn2c(=O)n(-c3ccc(NCc4cnn(C)c4)nc3)c3ccccc32)CC1 [Example 441, 5-chloro-2-methyl-N-((1r,4r)-4-((3-(6-(((1-methyl-1H-pyrazol-4-yl)methyl)amino)pyridin-3-yl)-2-oxo-2,3-dihydro-1H-benzo[d]imidazol-1-yl)methyl)cyclohexyl)nicotinamide]	< 0.3
Cc1cc(C)c(-n2c(=O)n(C[C@H]3CC[C@H](NC(=O)c4cc(Cl)cnc4C)CC3)c3ccccc32)cn1 [Example 330, 5-chloro-N-((1r,4r)-4-((3-(4,6-dimethylpyridin-3-yl)-2-oxo-2,3-dihydro-1H-benzo [d]imidazol-1-yl)methyl)cyclohexyl)-2-methylnico-tinamide]	< 0.3
COC1CN(c2ccc(-n3c(=O)n(C[C@H]4CC[C@H](NC(=O)c5cc(Cl)cnc5C)CC4)c4ccccc43)cn2)C1 [Example 144, 5-chloro-N-((1r,4r)-4-((3-(6-(3-methoxyazetidin-1-yl)pyridin-3-yl)-2-oxo-2,3-dihydro-1H-benzo[d]imidazol-1-yl)methyl)cyclohexyl)-2-methylnicotinamide]	< 0.3
CN(C)c1ccc(-n2c(=O)n(C[C@H]3CC[C@H](NC(=O)c4cc(Cl)cnc4C(F)(F)F)CC3)c3ccccc32)cn1 [Example 333, 5-chloro-N-((1r,4r)-4-((3-(6-(dimethylamino)pyridin-3-yl)-2-oxo-2,3-dihydro-1H-benzo [d]imidazol-1-yl)methyl)cyclohexyl)-2-(trifluoromethyl) nicotinamide]	< 0.3
COc1ccc(-n2c(=O)n(C[C@H]3CC[C@H](NC(=O)c4cc(Cl)cnc4C(F)(F)F)CC3)c3ccccc32)cn1 [Example 228, 5-chloro-N-((1r,4r)-4-((3-(6-methoxypyridin-3-yl)-2-oxo-2,3-dihydro-1H-benzo[d]imidazol-1-yl)methyl)cyclo-hexyl)-2-(trifluoromethyl) nicotinamide]	< 0.3
O=C(N[C@H]1CC[C@H](Cn2c(=O)n(-c3ccc4nccnc4c3)c3ccccc32)CC1)c1cc(Cl)cnc1C(F)(F)F [Example 407, 5-chloro-N-((1r,4r)-4-((2-oxo-3-(quinoxalin-6-yl)-2,3-dihydro-1H-benzo[d]imidazol-1-yl)methyl)cyclohexyl)-2-(trifluoromethyl)nicotinamide]	< 0.3
CNc1cnc(-n2c(=O)n(C[C@H]3CC[C@H](NC(=O)c4cc(Cl)cnc4C)CC3)c3ccccc32)cn1 [Example 115, 5-chloro-2-methyl-N-((1r,4r)-4-((3-(5-(methylamino)pyrazin-2-yl)-2-oxo-2,3-dihydro-1H-benzo [d]imidazol-1-yl)methyl)cyclo-hexyl)nicotinamide]	< 0.3
Cc1ncc(Cl)cc1C(=O)N[C@H]1CC[C@H](Cn2c(=O)n(-c3ccc(N(C)C)nc3)c3ccccc32)CC1 [Example 52, 5-chloro-N-((1r,4r)-4-((3-(6-(dimethylamino)pyridin-3-yl)-2-oxo-2,3-dihydro-1H-benzo[d]imidazol-1-yl)methyl)cyclohexyl)-2-methylnicotinamide]	< 0.3
Cn1cnc2cc(-n3c(=O)n(C[C@H]4CC[C@H](NC(=O)c5cc(Cl)cnc5C(F)(F)F)CC4)c4ccccc43)ccc21 [Example 326, 5-chloro-N-((1r,4r)-4-((1′-methyl-2-oxo-1′H-[1,5′-bibenzo[d]imidazol]-3(2H)-yl)methyl)cyclohexyl)-2-(trifluoromethyl)nicotinamide]	< 0.3
O=C(N[C@H]1CC[C@H](Cn2c(=O)n(Cc3ccncc3)c3ccccc32)CC1)c1cc(Cl)cnc1C(F)(F)F [Example 280, 5-chloro-N-((1r,4r)-4-((2-oxo-3-(pyridin-4-ylmethyl)-2,3-dihydro-1H-benzo[d]imidazol-1-yl)methyl)cyclohexyl)-2-(trifluoromethyl)nicotinamide]	< 0.3
Cc1ncc(Cl)cc1C(=O)N[C@H]1CC[C@H](Cn2c(=O)n(-c3cnc4[nH]ccc4c3)c3ccccc32)CC1 [Example 408, 5-chloro-2-methyl-N-((1r,4r)-4-((2-oxo-3-(1H-pyrrolo[2,3-b]pyridin-5-yl)-2,3-dihydro-1H-benzo[d]imidazol-1-yl)methyl)cyclohexyl)nicotinamide]	< 0.3

Further lines, results first:

IC50 [µM]	Structure (SMILES)
< 0.3	Cc1ncc(Cl)cc1C(=O)N[C@H]1CC[C@H](Cn2c(=O)n(-c3cnc4cccnc4c3)c3ccccc32)CC1 [Example 442, N-((1r,4r)-4-((3-(1,5-naph-thyridin-3-yl)-2-oxo-2,3-dihydro-1H-benzo[d]imidazol-1-yl)methyl)cyclo-hexyl)-5-chloro-2-methyl-nicotinamide]
< 0.3	O=C(N[C@H]1CC[C@H](Cn2c(=O)n(-c3ccnc(N4CCOCC4)c3)c3ccccc32)CC1)c1cc(Cl)cnc1C(F)F [Example 686, 5-chloro-2-(difluoromethyl)-N-((1r,4r)-4-((3-(2-morpho-linopyridin-4-yl)-2-oxo-2,3-dihydro-1H-benzo[d]imidazol-1-yl)methyl)cyclohexyl) nicotinamide]
< 0.3	Cc1ncc(Cl)cc1C(=O)N[C@H]1CC[C@H](Cn2c(=O)n(-c3cccc(N4CCOCC4)c3)c3ccccc32)CC1 [Example 444, 5-chloro-2-methyl-N-((1r,4r)-4-((3-(3-morpholinophenyl)-2-oxo-2,3-dihydro-1H-benzo [d]imidazol-1-yl)methyl)cyclo-hexyl)nicotinamide]
< 0.3	CN(C)c1cccc(-n2c(=O)n(C[C@H]3CC[C@H](NC(=O)c4cc(Cl)cnc4C(F)F)CC3)c3ccccc32)n1 [Example 659, 5-chloro-2-(difluoromethyl)-N-((1r,4r)-4-((3-(6-(dimethyl-amino)pyridin-2-yl)-2-oxo-2,3-dihydro-1H-benzo[d]imidazol-1-yl)methyl)cyclo-hexyl)nicotinamide]
< 0.3	O=C(N[C@H]1CC[C@H](Cn2c(=O)n(-c3cnc(OCCO)c(F)c3)c3ccccc32)CC1)c1cc(Cl)cnc1C(F)F [Example 638, 5-chloro-2-(difluoromethyl)-N-((1r,4r)-4-((3-(5-fluoro-6-(2-hydroxyethoxy)pyridin-3-yl)-2-oxo-2,3-dihydro-1H-benzo[d]imidazol-1-yl)methyl)cyclohexyl)nicotinamide]
< 0.3	Cc1ncc(Cl)cc1C(=O)N[C@H]1CC[C@H](Cn2c(=O)n(-c3ccc(-c4ccn(C)n4)cc3)c3ccccc32)CC1 [Example 447, 5-chloro-2-methyl-N-((1r,4r)-4-((3-(4-(1-methyl-1H-pyrazol-3-yl)phenyl)-2-oxo-2,3-dihydro-1H-benzo[d]imidazol-1-yl)methyl)cyclo-hexyl)nicotinamide]
< 0.3	CNc1ccc(-n2c(=O)n(C[C@H]3CC[C@H](NC(=O)c4cc(Cl)cnc4C(F)F)CC3)c3ccc(F)cc32)cn1 [Example 626, 5-chloro-2-(difluoromethyl)-N-((1r,4r)-4-((5-fluoro-3-(6-(methylamino)pyridin-3-yl)-2-oxo-2,3-dihydro-1H-benzo [d]imidazol-1-yl)methyl)cyclohexyl)nicotinamide]
< 0.3	Cn1ncc2cc(-n3c(=O)n(C[C@H]4CC[C@H](NC(=O)c5cc(Cl)cnc5C(F)F)CC4)c4cccnc43)ccc21 [Example 547, 5-chloro-2-(difluoromethyl)-N-((1r,4r)-4-((3-(1-methyl-1H-indazol-5-yl)-2-oxo-2,3-dihydro-1H-imidazo[4,5-b]pyridin-1-yl)methyl)cyclo-hexyl)nicotinamide]
< 0.3	CNC(=O)c1ccc(-n2c(=O)n(C[C@H]3CC[C@H](NC(=O)c4cc(Cl)cnc4C(F)F)CC3)c3cc(F)ccc32)cn1 [Example 530, 5-(3-(((1r,4r)-4-(5-chloro-2-(difluoromethyl)nicotinamido)cyclohexyl)methyl)-5-fluoro-2-oxo-2,3-dihydro-1H-benzo [d]imidazol-1-yl)-N-methylpicolinamide]
< 0.3	COc1ccc(-n2c(=O)n(C[C@H]3CC[C@H](NC(=O)c4cc(Cl)cnc4C(F)F)CC3)c3cccnc32)cc1F [Example 710, 5-chloro-2-(difluoromethyl)-N-((1r,4r)-4-((3-(3-fluoro-4-methoxyphenyl)-2-oxo-2,3-dihydro-1H-imidazo[4,5-b]pyridin-1-yl)methyl)cyclo-hexyl)nicotinamide]
< 0.3	CNc1cc(-n2c(=O)n(C[C@H]3CC[C@H](NC(=O)c4cc(Cl)cnc4C(F)F)CC3)c3ccccc32)ccn1 [Example 661, 5-chloro-2-(difluoromethyl)-N-((1r,4r)-4-((3-(2-(methylamino)pyridin-4-yl)-2-oxo-2,3-dihydro-1H-benzo[d]imidazol-1-yl)methyl)cyclohexyl)nicotinamide]
< 0.3	Cc1ncc(Cl)cc1C(=O)N[C@H]1CC[C@H](Cn2c(=O)n(-c3cccc(-c4cnn(C)c4)n3)c3ccccc32)CC1 [Example 656, 5-chloro-2-methyl-N-((1r,4r)-4-((3-(6-(1-methyl-1H-pyrazol-4-yl)pyridin-2-yl)-2-oxo-2,3-dihydro-1H-benzo[d]imidazol-1-yl)methyl)cyclohexyl)nicotinamide]
